US7649113B2, “Mono, di and tri cyclic compounds useful for lowering IgE concentrations” (The Research Foundation of State University of New York, priority 2003, dated 2010)

Experiments:
dogs = details: cited from earlier work
[1] = test system: PBMC (peripheral blood mononuclear cells); details: patient PBMC; dose dependent manner; cited from earlier work
[2] = test system: normal mouse spleen cells; details: cited from earlier work
IgE production [3] = test: Suppression of human IgE production in vitro; type: cell-based
mice = details: cited from earlier work
[4] = test system: inducible nitric oxide synthase (iNOS); details: murine macrophages; cited from earlier work
[5] = test system: allergic steroid dependent asthmatic patients; details: oral administration; cited from earlier work
IgE production [6] = test: Suppression of human IgE production in vivo
[7] = test system: rheumatoid arthritis (RA) patients; details: cited from earlier work
IgE production [8] = test: Suppression of murine IgE production in vivo
[9] = test system: human whole blood cultures; details: physiological doses; cited from earlier work

SMILES	severity of osteoarthritis (OA) (dogs)	anti-CD40 rhIL-4 mediated in vitro induction of IgE responses [1]	PHA/IL-4 mediated IgE response [2]	human IgE production (IgE production [3])	ability to mount delayed-type hypersensitivity responses (mice)	inducible nitric oxide synthase (iNOS) expression [4]	oral corticosteroid requirements [5]	symptoms (A.M. and P.M.) [5]	human IgE production (IgE production [6])	therapy for early RA ([7]; RA patients)	side effects ([7]; mild and moderate RA patients)	murine IgE production (IgE production [8])	mitotic responses to phytohemagglutinin [9]
C[C@H]1c2cccc(O)c2C(=O)C2=C(O)[C@]3(O)C(=O)C(C(N)=O)=C(O)[C@@H](N(C)C)[C@@H]3[C@@H](O)[C@@H]21 [doxycycline]	reduced	suppress	suppresses	suppresses	inhibit								
CN(C)c1ccc(O)c2c1C[C@H]1C[C@H]3[C@H](N(C)C)C(=O)C(C(N)=O)=C(O)[C@@]3(O)C(=O)C1=C2O [minocycline]	reduced	suppress		suppresses		inhibits	decreased	improved their symptoms	suppresses	appears to be an effective therapy	no side effects	suppresses	inhibits
